Laboratory results as given in patent publication US9493426B2, “Quinazolinone derivatives useful as FGFR kinase modulators” (priority 2013, dated 2016).

Experiments:
[1] = biological target: FGFR2 (h) (Homo sapiens, UniProt P21802); assay: FGFR2 (enzymatic assay), TR-FRET; assay type: biochemical; details: 0.4 μM ATP; pIC50 = -log IC50 (M); read-out: FGFR 2 pIC50 (converted)
[2] = biological target: Ba/F3-FGFR4-transfected cells (Homo sapiens, UniProt P22455, cells depend on it, form not given); assay: Ba/F3-FGFR4 cellular proliferation assay; assay type: cell-based; details: 24 hours, Alamar Blue
Sequence of Ba/F3-FGFR4-transfected cells (P22455 whole entry, looked up, change not shown): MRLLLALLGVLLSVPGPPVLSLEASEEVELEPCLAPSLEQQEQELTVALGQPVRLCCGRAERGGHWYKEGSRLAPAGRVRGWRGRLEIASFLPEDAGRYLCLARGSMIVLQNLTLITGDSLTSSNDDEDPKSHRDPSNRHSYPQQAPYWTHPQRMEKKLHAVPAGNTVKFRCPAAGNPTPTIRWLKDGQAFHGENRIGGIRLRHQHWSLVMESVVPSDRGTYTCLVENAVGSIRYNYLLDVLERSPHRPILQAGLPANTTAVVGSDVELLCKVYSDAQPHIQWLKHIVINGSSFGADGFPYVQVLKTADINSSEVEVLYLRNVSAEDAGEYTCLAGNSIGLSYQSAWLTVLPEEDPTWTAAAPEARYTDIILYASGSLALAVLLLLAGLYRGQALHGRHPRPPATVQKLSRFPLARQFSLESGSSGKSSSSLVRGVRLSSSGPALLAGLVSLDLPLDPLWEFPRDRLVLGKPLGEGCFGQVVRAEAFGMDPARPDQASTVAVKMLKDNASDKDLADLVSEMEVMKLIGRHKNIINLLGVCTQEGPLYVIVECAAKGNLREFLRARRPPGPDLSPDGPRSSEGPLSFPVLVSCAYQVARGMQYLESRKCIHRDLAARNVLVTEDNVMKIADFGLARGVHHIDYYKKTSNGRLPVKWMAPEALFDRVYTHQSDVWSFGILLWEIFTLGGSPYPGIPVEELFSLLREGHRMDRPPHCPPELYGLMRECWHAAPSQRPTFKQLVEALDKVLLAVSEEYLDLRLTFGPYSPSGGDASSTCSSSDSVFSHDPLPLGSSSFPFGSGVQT
Procedure: Ba/F3-FGFR4 (Cellular Proliferation Assay)
(§1) In a 384 well plate, 100 nl of compound dilution in DMSO was sprayed before adding 50 μl cell culture medium (phenol red free RPMI-1640, 10% FBS, 2 mM L-Glutamine and 50 μg/ml Gentamycin) containing 20000 cells per well of Ba/F3-FGFR4-transfected cells. Cells were put in an incubator at 37° C. and 5% CO2. After 24 hours, 10 μl of Alamar Blue solution (0.5 mM K3Fe(CN)6, 0.5 mM K4Fe(CN)6, 0.15 mM Resazurin and 100 mM Phosphate Buffer) was added to the wells, incubated for 4 hours at 37° C. and 5% CO2 before RFU's (Relative Fluorescence Units) (ex. 540 nm., em. 590 nm.) were measured in a fluorescence plate reader.
In this assay, the inhibitory effect of different compound concentrations (range 10 μM to 0.1 nM) was determined and used to calculate an IC50 (M) and pIC50 (−log IC50) value.

[3] = biological target: FGFR3 (h) (Homo sapiens, UniProt P22607); assay: FGFR3 (enzymatic assay), TR-FRET; assay type: biochemical; details: 25 μM ATP; pIC50 = -log IC50 (M); read-out: FGFR3 pIC50 (converted)
Sequence of FGFR3 (h) (P22607 23-806): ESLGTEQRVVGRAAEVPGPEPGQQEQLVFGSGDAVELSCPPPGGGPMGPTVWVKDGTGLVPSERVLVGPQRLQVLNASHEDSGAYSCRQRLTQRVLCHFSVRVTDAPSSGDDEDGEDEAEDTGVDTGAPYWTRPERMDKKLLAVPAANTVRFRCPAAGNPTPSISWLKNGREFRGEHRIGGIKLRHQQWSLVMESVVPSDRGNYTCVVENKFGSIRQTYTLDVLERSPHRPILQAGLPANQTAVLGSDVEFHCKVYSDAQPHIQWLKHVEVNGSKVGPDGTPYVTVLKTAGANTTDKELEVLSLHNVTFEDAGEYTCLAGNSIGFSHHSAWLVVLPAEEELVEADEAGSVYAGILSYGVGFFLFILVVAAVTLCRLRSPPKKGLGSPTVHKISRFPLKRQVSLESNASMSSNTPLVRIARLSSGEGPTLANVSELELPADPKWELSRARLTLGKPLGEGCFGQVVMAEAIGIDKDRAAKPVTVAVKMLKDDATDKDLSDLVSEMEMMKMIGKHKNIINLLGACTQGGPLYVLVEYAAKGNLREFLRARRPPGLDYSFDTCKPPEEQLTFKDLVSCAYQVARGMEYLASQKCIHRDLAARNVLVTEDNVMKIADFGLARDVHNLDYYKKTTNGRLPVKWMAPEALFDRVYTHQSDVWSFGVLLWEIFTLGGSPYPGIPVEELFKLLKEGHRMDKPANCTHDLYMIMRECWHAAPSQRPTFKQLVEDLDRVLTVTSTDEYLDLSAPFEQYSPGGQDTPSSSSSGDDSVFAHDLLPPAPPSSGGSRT

[4] = biological target: T1, FGFR1 (Homo sapiens, UniProt P11362); assay: Enzyme binding assay (KINOMEscan) FGFR1; details: FGFR1_pKd, pKd = -log Kd (M)
T1 construct: purchased DiscoveRx Corporation
Outline: (§2)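 Binding affinities of the compounds for each kinase were measured with the KINOMEscan platform, run as an outsourced service.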

[5] = biological target: FGFR1 (h) (Homo sapiens, UniProt P11362); assay: FGFR1 (enzymatic assay), TR-FRET; assay type: biochemical
[6] = biological target: T2, FGFR3 (Homo sapiens, UniProt P22607); assay: Enzyme binding assay (KINOMEscan) FGFR3; details: pKd = -log Kd (M), read-out: FGFR3_pKd (converted)
T2 construct: purchased DiscoveRx Corporation
T2 sequence (P22607 23-806): as above
Outline: as §2

[7] = biological target: T3, Ba/F3-FGFR1-transfected cells (Homo sapiens, UniProt P11362); assay: Ba/F3-FGFR1 (minus IL3 or plus IL3) cellular proliferation assay; assay type: cell-based; details: 24 hours, Alamar Blue
T3 construct: other: minus IL3; 24 hours, Alamar Blue
T3 sequence (P11362 whole entry, change not shown): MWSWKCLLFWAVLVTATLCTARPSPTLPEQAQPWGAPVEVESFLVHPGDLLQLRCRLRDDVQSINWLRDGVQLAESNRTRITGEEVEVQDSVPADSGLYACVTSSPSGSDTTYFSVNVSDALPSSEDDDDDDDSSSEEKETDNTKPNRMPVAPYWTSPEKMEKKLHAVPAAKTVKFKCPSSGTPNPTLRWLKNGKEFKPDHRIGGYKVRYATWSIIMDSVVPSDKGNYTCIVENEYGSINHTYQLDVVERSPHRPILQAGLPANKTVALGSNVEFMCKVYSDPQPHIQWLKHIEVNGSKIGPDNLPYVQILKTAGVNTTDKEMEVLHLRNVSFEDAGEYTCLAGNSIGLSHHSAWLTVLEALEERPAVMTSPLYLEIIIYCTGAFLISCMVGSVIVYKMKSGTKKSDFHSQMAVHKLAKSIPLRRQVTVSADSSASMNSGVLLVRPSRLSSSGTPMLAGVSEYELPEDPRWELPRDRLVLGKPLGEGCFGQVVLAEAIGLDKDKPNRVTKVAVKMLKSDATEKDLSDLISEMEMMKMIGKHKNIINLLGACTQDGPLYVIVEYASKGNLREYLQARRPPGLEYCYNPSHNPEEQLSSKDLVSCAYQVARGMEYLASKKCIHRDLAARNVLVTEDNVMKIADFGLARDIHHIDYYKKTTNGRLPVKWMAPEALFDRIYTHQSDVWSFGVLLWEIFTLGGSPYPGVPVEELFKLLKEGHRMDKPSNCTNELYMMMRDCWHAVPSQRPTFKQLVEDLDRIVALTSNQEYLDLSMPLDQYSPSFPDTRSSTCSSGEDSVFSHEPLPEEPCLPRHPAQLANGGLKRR
Procedure: Ba/F3-FGFR1 (Minus IL3 or Plus IL3) (Cellular Proliferation Assay)
as §1, with “Ba/F3-FGFR1-transfected” for “Ba/F3-FGFR4-transfected”
(§3) In this assay, the inhibitory effect of different compound concentrations (range 10 μM to 0.1 nM) was determined and used to calculate an IC50 (M) and pIC50 (−log IC50) value. As a counterscreen the same experiment was performed in the presence of 10 ng/ml murine IL3.

[8] = biological target: FGFR4 (h) (Homo sapiens, UniProt P22455); assay: FGFR4 (enzymatic assay), TR-FRET; assay type: biochemical; details: 5 μM ATP; pIC50 = -log IC50 (M); read-out: FGFR 4 pIC50 (converted)
Sequence of FGFR4 (h) (P22455 22-802): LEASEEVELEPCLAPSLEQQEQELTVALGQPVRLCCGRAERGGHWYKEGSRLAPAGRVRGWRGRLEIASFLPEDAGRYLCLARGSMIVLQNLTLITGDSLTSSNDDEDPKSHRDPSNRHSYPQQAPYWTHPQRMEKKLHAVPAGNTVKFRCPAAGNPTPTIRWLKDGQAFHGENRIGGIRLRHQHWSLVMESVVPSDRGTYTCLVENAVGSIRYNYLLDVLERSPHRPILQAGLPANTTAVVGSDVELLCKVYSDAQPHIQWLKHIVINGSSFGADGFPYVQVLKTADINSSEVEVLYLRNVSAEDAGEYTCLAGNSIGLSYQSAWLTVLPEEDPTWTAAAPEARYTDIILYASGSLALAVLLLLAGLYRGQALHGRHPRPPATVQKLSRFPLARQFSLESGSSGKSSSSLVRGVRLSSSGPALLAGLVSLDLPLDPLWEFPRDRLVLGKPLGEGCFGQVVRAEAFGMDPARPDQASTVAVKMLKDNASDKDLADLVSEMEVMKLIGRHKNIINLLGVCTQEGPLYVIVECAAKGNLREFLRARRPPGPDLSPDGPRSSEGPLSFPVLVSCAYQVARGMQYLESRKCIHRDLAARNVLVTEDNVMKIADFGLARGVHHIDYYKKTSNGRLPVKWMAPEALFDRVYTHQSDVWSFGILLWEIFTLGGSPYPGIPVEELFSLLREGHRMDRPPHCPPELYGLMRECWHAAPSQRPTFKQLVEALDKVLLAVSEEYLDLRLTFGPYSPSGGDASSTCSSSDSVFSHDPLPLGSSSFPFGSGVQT

[9] = biological target: T4, Ba/F3-FGFR3-transfected cells (Homo sapiens, UniProt P22607, cells depend on it, form not given); assay: Ba/F3-FGFR3 (minus IL3 or plus IL3) cellular proliferation assay; assay type: cell-based; details: 24 hours, Alamar Blue
T4 construct: BAF3-FGFR3 (MIN IL3 pIC50); other: minus IL3; 24 hours, Alamar Blue
Procedure: Ba/F3-FGFR3 (Minus IL3 or Plus IL3) (Cellular Proliferation Assay)
as §1, with “Ba/F3-FGFR3-transfected” for “Ba/F3-FGFR4-transfected”
as §3

[10] = biological target: T5, FGFR4 (Homo sapiens, UniProt P22455); assay: Enzyme binding assay (KINOMEscan) FGFR4; details: pKd = -log Kd (M), read-out: FGFR4_pKd (converted)
T5 construct: purchased DiscoveRx Corporation
T5 sequence (P22455 22-802): as above
Outline: as §2

[11] = biological target: T6, FGFR2 (Homo sapiens, UniProt P21802); assay: Enzyme binding assay (KINOMEscan) FGFR2; details: pKd = -log Kd (M), read-out: FGFR2_pKd (converted)
T6 construct: purchased DiscoveRx Corporation
Outline: as §2

[12] = biological target: T7, Ba/F3-KDR-transfected cells (Homo sapiens, UniProt P35968, cells depend on it, form not given); assay: Ba/F3-KDR (minus IL3 or plus IL3) cellular proliferation assay; assay type: cell-based; details: 24 hours, Alamar Blue
T7 construct: BAF3-KDR (MIN IL3 pIC50); other: minus IL3; 24 hours, Alamar Blue
Procedure: Ba/F3-KDR (Minus IL3 or Plus IL3) (Cellular Proliferation Assay)
as §1, with “Ba/F3-KDR-transfected” for “Ba/F3-FGFR4-transfected”
as §3

[13] = biological target: T8, VEGFR2 (Homo sapiens, UniProt P35968); assay: Enzyme binding assay (KINOMEscan) VEGFR2; details: pKd = -log Kd (M), read-out: VEGFR2_pKd (converted)
T8 construct: purchased DiscoveRx Corporation
T8 sequence (P35968 20-1356): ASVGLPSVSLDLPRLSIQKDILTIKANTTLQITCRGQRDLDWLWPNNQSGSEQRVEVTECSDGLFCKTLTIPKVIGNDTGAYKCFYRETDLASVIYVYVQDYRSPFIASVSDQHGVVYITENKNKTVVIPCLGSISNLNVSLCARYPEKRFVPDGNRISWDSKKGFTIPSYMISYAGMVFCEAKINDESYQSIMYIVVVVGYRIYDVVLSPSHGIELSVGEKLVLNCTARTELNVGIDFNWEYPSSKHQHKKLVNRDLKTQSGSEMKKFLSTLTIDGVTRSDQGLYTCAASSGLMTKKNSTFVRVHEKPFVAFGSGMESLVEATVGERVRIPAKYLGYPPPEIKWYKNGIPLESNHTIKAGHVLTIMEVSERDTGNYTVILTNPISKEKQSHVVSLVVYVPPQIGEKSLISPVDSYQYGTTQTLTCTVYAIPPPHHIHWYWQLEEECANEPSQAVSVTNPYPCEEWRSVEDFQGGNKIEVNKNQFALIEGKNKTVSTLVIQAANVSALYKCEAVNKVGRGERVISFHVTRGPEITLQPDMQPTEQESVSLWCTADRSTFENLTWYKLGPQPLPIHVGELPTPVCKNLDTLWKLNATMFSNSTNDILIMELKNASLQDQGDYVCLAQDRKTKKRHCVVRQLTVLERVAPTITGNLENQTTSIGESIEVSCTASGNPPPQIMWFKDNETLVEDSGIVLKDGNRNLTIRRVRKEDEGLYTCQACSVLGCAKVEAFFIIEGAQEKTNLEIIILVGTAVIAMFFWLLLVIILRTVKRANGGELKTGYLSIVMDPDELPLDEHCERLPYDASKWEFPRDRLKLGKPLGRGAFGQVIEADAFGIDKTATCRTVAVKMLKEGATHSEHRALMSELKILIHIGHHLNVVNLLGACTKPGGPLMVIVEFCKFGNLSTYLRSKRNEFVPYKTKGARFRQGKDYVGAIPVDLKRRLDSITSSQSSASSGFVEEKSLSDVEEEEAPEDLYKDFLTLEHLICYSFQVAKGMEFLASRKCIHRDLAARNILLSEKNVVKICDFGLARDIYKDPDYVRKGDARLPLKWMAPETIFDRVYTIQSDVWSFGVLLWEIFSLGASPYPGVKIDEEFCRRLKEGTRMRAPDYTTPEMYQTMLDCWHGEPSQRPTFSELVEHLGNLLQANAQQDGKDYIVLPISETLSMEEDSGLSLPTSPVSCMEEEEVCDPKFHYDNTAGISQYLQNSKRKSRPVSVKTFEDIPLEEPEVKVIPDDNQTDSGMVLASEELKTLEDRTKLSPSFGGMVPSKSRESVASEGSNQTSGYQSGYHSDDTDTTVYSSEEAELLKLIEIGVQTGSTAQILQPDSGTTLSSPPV
Outline: as §2

[14] = biological target: KDR (h) (Homo sapiens, UniProt P35968); assay: KDR (VEGFR2) (enzymatic assay), TR-FRET; assay type: biochemical; details: 3 μM ATP; pIC50 = -log IC50 (M); read-out: VEGFR KDR pIC50 (converted)
Sequence of KDR (h) (P35968 20-1356): as above
Procedure: KDR (VEGFR2) (Enzymatic Assay)
In a final reaction volume of 30 μL, KDR (h) (150 ng/ml) was incubated with 50 mM HEPES pH 7.5, 6 mM MnCl2, 1 mM DTT, 0.1 mM Na3VO4, 0.01% Triton-X-100, 500 nM Btn-Flt3 and 3 μM ATP in the presence of compound (1% DMSO final). After incubation for 120 minutes at room temperature the reaction was stopped with 2.27 nM EU-anti P-Tyr, 7 mM EDTA, 31.25 nM SA-XL-665 and 0.02% BSA which was present for 60 minutes at room temperature. Time-Resolved Fluorescence Resonance Energy Transfer (TR-FRET) signal (ex340 nm. Em 620 nm, em 655 nm) was measured afterwards and results are expressed in RFU (Relative Fluorescence Units). In this assay, the inhibitory effect of different compound concentrations (range 10 μM to 0.1 nM) was determined and used to calculate an IC50 (M) and pIC50 (−log IC50) value.

COc1cc(OC)c(F)c(N(CCNC(C)C)c2ccc3ncn(-c4cnn(C)c4)c(=O)c3c2)c1F [Compound 19]
IC50 [1]: 1.58e-08 M | melting point: 162 °C | BAF3-FGFR4 (pIC50) [2]: 8.2 | IC50 [3]: 1.58e-08 M | Kd [4]: 1.58e-09 M | IC50 [5]: 5.01 nM | Kd [6]: 5.01e-09 M | BAF3-FGFR1 (MIN IL3 pIC50) [7]: 8.8 | IC50 [8]: 2e-08 M | BAF3-FGFR3 (MIN IL3 pIC50) [9]: 8.6 | Kd [10]: 5.01e-09 M | Kd [11]: 5.01e-09 M | BAF3-KDR (MIN IL3 pIC50) [12]: 6.2 | Kd [13]: 1.58e-08 M | IC50 [14]: 1.26e-07 M
